Results published in patent publication US20240316249A1, “INJECTION FORMULATION COMPOSITION FOR USE AS FILLER OR DRUG CARRIER THROUGH CLICK CHEMISTRY REACTION” (AJOU UNIVERSITY INDUSTRY-ACADEMIC COOPERATION FOUNDATION, priority 2018, published 2024).
Entries after “also recorded” stand apart in the source; their conditions may differ.

Assay: Amount of doxorubicin in tumor and organs after injection
Type: in vivo, mice
Method: To perform a pharmacokinetic experiment, mice were sacrificed on day 1, day 6, day 12, and day 18. Organs (tumors, the intestines, lungs, kidneys, liver, spleen, and heart) were immediately acquired and photographed (FIG. 12). To measure the amount of doxorubicin remaining in each organ, each organ was homogenized in a 0.3N HCl/70% ethanol solution at 25,000 rpm to 30,000 rpm using a T 10 basic ULTRA-TURRAX Homogenizer (IKA-Werke GmbH & Co., Staufen, Germany), followed by incubation at 37° C. for 15 minutes. Each uniformly mixed sample was mixed with the same volume of 40% ZnSO4 and a mobile phase, and incubated again at 37° C. for 15 minutes. When the incubation was completed, each sample was centrifuged at 2,000 rpm for 10 minutes, and the amount of doxorubicin contained in the supernatant was calculated by referring to the standard calibration curve. The amount of doxorubicin contained in each organ was measured by a UV-visible Spectrophotometer (V-770, JASCO Inc., Tokyo, Japan) (FIG. 13).

For `COc1cccc2c1C(=O)c1c(O)c3c(c(O)c1C2=O)C[C@@](O)(C(=O)CO)C[C@@H]3O[C@H]1C[C@H](N)[C@H](O)[C@H](C)O1` [Dox, doxorubicin], the “occurrence of side effects due to the anticancer agent” value (Dox repeat injection (0.1 mg Dox)) was “induces various side effects”, the “distribution of anticancer agent in tumor and organs” value (Dox repeat injection (0.1 mg Dox), compared to injection of doxorubicin alone (FIG. 13)) was “a large amount of anticancer agent is present in a tumor; also recorded: a large amount of anticancer agent remains in various organs” and the “distribution of anticancer agent in tumor and organs” value (single injection 0.4 mg Dox, day 1, 6, 12, 18 (FIG. 13)) was “distributed more rapidly to various organs than a tumor”.
